The source of these data is ChEMBL document CHEMBL4321872, “Engineering a Potent, Long-Acting, and Periphery-Restricted Oxytocin Receptor Agonist with Anorexigenic and Body Weight Reducing Effects” (J Med Chem, 2020).

Usually EC50 stands for the concentration at which the effect is half-maximal. The term half-life denotes the time needed for the level to fall by half in the phase considered. A higher half-life goes with slow loss.

Calls of active or inactive are those of the source. Numbered stars: 1 amine (or outer) side, 2 acyl side, 3 side chain; on linkers, the order of the positions; unused ones are H or OH. Bridge positions count the residues as written; N and C are the ends. Square brackets hold non-standard residues; d marks the D form. Peptide text beside a SMILES is read from it. * marks the point of attachment. X1 = O=C(O)CCCCCCCCCCCCCCCCC(=O)N[C@@H](CCCCNC(=O)CCOCCOCCNC(=O)CCOCCOCCNC(=O)C*)C(=O)O; X4 = O=C(O)CCCCCCCCCCCCCCCCC(=O)NCCOCCOCCOCCNC(=O)C*; X3 = CCCCCCCCCCCCCC(=O)NCCOCCOCCNC(=O)C*; X2 = O=C(CCC[*:2])[*:1]; Sar = CNCC(=O)O; Cam = NC(=O)C*

Data set [1] concerns the target T1, Oxytocin receptor (Homo sapiens) (UniProt P30559).
T1 sequence (whole entry): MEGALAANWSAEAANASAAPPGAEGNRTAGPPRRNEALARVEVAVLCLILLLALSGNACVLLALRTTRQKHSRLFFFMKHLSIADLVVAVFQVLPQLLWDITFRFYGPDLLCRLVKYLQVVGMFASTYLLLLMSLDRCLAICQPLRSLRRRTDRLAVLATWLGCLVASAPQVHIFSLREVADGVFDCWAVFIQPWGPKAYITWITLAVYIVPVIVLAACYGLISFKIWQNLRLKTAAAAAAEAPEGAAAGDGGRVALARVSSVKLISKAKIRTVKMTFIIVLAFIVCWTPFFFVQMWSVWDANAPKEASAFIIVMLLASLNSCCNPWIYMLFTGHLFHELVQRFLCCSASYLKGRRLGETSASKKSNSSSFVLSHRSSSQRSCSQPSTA
In words: Ratio of EC50 for agonist activity at recombinant human Gi/Go-coupled OTR expressed in CHOK1 cells in presence of 10% FBS to EC50 for agonist activity at recombinant human Gi/Go-coupled OTR expressed in CHOK1 cells in absence of 10% FBS. It counts as cell-based.

Data set [2] has as its target T2, Oxytocin receptor (Homo sapiens, UniProt P30559).
T2 sequence (P30559 whole entry): T1 sequence (whole entry)
Nature of the data set: Agonist activity at recombinant human Gi/Go-coupled OTR expressed in CHOK1 cells assessed as induction of beta-arrestin recruitment measured after 90 mins in presence of 10% FBS by pathhunter assay. The data set is classed as cell-based. For orientation: Activated receptors often draw arrestin, which recruitment assays turn into a signal.

The target in data set [3] is T1, Oxytocin receptor (Homo sapiens). Nature of the data set: Agonist activity at recombinant human Gi/Go-coupled OTR expressed in CHOK1 cells assessed as induction of beta-arrestin recruitment measured after 90 mins in absence of 10% FBS by pathhunter assay relative to oxytocin. It counts as cell-based.
Data set [4] addresses T2, Oxytocin receptor. In words: Agonist activity at recombinant human Gi/Go-coupled OTR expressed in CHOK1 cells assessed as induction of beta-arrestin recruitment measured after 90 mins in absence of 10% FBS by pathhunter assay. It counts as cell-based.
Data set [5] is described as follows: Aqueous solubility of the compound. It counts as physicochemical. Particulars: buffer.
In data set [6] the target is T1, Oxytocin receptor (Homo sapiens). Nature of the data set: Agonist activity at recombinant human Gi/Go-coupled OTR expressed in CHOK1 cells assessed as induction of beta-arrestin recruitment measured after 90 mins in presence of 10% FBS by pathhunter assay relative to oxytocin. The data set is classed as cell-based.
In data set [7] the test system is Mus musculus. Nature of the data set: Anorexigenic activity in C57BL/6J mouse assessed as reduction in body weight at 0.5 mg/kg, sc measured daily for 2 days. It counts as functional, organism-based.
Data set [8] concerns Mus musculus. In words: Anorexigenic activity in C57BL/6J mouse assessed as reduction in food intake at 0.5 mg/kg, sc measured at 3 hrs interval for 6 hrs. The data set is classed as functional, organism-based.
Data set [9] deals with Mus musculus. Nature of the data set: Anorexigenic activity in C57BL/6J mouse […] model assessed as reduction in food intake at 0.1 mg/kg, sc administered once daily for 9 days and measured daily during compound dosing. The data set is classed as functional, organism-based.
A short description of data set [10]: Half life in C57BL/6J mouse. The data set is classed as ADME. Particulars: in vivo.
In data set [11] the test system is Mus musculus. In words: Anorexigenic activity in C57BL/6J mouse […] model assessed as reduction in body weight at 0.1 mg/kg, sc administered once daily for 9 days and measured daily during compound dosing. It counts as functional, organism-based.
Data set [12] deals with Mus musculus. In words: Anorexigenic activity in C57BL/6J mouse assessed as reduction in food intake at 0.5 mg/kg, sc measured at 24 hrs post-dose. The data set is classed as functional, organism-based.

Regarding `CC[C@H](C)[C@@H]1NC(=O)[C@H](Cc2ccc(O)cc2)NC(=O)CCCSC[C@@H](C(=O)NCC(=O)N[C@@H](CSCC(=O)NCCOCCOCCOCCNC(=O)CCCCCCCCCCCCCCCCC(=O)O)C(=O)NCC(N)=O)NC(=O)[C@H](CC(N)=O)NC(=O)[C@H](CCC(N)=O)NC1=O` (YIQNCGC(X4)G-NH2; linker N-5 via X2), the Ratio EC50 in data set [1] was 50.9. The concentration for a half-maximal effect (EC50) was 173 nM on Oxytocin receptor [2] and 3.41 nM on Oxytocin receptor [4]. The %max in data set [3] was 117%. In addition, in data set [5], the solubility result is given as “Soluble”.
Take `CCCCCCCCCCCCCC(=O)NCCOCCOCCNC(=O)CSC[C@@H]1NC(=O)[C@H]([C@@H](C)CC)NC(=O)[C@H](Cc2ccc(O)cc2)NC(=O)CCCSC[C@@H](C(=O)N2CCC[C@H]2C(=O)N[C@@H](CC(C)C)C(=O)NCC(N)=O)NC(=O)[C@H](CC(N)=O)NC1=O` (YIC(X3)NCPLG-NH2; linker N-5 via X2): the EC50 on Oxytocin receptor [2] was over 1000 nM. For the same compound, the %max in data set [6] worked out at 5.8%.
For the compound `CC[C@H](C)[C@@H]1NC(=O)[C@H](Cc2ccc(O)cc2)NC(=O)CCCSC[C@@H](C(=O)NCC(=O)N[C@@H](CSCC(=O)NCCOCCOCCC(=O)NCCOCCOCCC(=O)NCCCC[C@H](NC(=O)CCCCCCCCCCCCCCCCC(=O)O)C(=O)O)C(=O)N(C)CC(N)=O)NC(=O)[C@H](CC(N)=O)NC(=O)[C@H](CCC(N)=O)NC1=O` (YIQNCGC(X1)[Sar]-NH2; linker N-5 via X2), the Ratio EC50 in data set [1] is 7.08. Further, the concentration for a half-maximal effect (EC50) on Oxytocin receptor [2] is 464 nM; at Oxytocin receptor [4], 65.5 nM. In data set [3], the %max turned out to be 50%.
In the case of `CC[C@H](C)[C@@H]1NC(=O)[C@H](Cc2ccc(OC)cc2)NC(=O)CCCSC[C@@H](C(=O)N2CCC[C@H]2C(=O)N[C@@H](CC(C)C)C(=O)NCC(N)=O)NC(=O)[C@H](CC(N)=O)NC(=O)[C@H](CCC(N)=O)NC1=O` [CARBETOCIN] (Y(Me)IQNCPLG-NH2; linker N-5 via X2), the result in the data set on Mus musculus [7] and with Mus musculus [12] was inactive. Moreover, the result in the data set on Mus musculus [8], in the data set with Mus musculus [9] and with Mus musculus [11] was Active. Also, the half-life in data set [10] came out at 40 min.
Turning to `CC[C@H](C)[C@@H]1NC(=O)[C@H](Cc2ccc(O)cc2)NC(=O)CCCSC[C@@H](C(=O)NCC(=O)N[C@@H](CSCC(=O)NCCOCCOCCOCCNC(=O)CCCCCCCCCCCCCCCCC(=O)O)C(=O)N(C)CC(N)=O)NC(=O)[C@H](CC(N)=O)NC(=O)[C@H](CCC(N)=O)NC1=O` (YIQNCGC(X4)[Sar]-NH2; linker N-5 via X2), the Ratio EC50 in data set [1] came to 15.9. Further, the EC50 stood at 831 nM on Oxytocin receptor [2] and 52.4 nM at Oxytocin receptor [4]. Further, the %max in data set [3] came out at 34%.
In the case of `CCCCCCCCCCCCCC(=O)NCCOCCOCCNC(=O)CSC[C@@H]1NC(=O)[C@H](Cc2ccc(O)cc2)NC(=O)CCCSC[C@@H](C(=O)N2CCC[C@H]2C(=O)N[C@@H](CC(C)C)C(=O)NCC(N)=O)NC(=O)[C@H](CC(N)=O)NC(=O)[C@H](CCC(N)=O)NC1=O` (YC(X3)QNCPLG-NH2; linker N-5 via X2), the EC50 on Oxytocin receptor [2] is over 1000 nM. In addition, the %max in data set [6] amounted to 2.3%.
On the same counts, the results for `CC(C)C[C@H](NC(=O)[C@@H]1CCCN1C(=O)[C@@H]1CSCCCC(=O)N[C@@H](Cc2ccc(O)cc2)C(=O)N[C@@H](CSCC(N)=O)C(=O)N[C@@H](CCC(N)=O)C(=O)N[C@@H](CC(N)=O)C(=O)N1)C(=O)NCC(N)=O` (YC(Cam)QNCPLG-NH2; linker N-5 via X2) are over 1000 nM and 2%.
For `CCCCCCCCCCCCCC(=O)NCCOCCOCCNC(=O)CSC[C@H](NC(=O)CNC(=O)[C@@H]1CSCCCC(=O)N[C@@H](Cc2ccc(O)cc2)C(=O)N[C@@H]([C@@H](C)CC)C(=O)N[C@@H](CCC(N)=O)C(=O)N[C@@H](CC(N)=O)C(=O)N1)C(=O)NCC(N)=O` (YIQNCGC(X3)G-NH2; linker N-5 via X2), the Ratio EC50 in data set [1] came out at 3.6. The EC50 came to 18.9 nM at Oxytocin receptor [2] and 5.27 nM on Oxytocin receptor [4]. Further, the %max in data set [3] came out at 116%. Further, the solubility entry in data set [5] is recorded as “Soluble”.
